# Measured values taken from patent US9468624B2, “Small molecule antagonists of bacterial quorum-sensing receptors” (priority 2008, dated 2016).
# Tests used:
# [1] = system: C. violaceum killing of C. elegans; experiment: C. elegans life span assay following C. violaceum infection; assay type: in vivo, Caenorhabditis elegans; conditions: C. violaceum cviI mutant
# Description: Life Span Assays. C. elegans lifespan assays were completed with at least 100 wild type N2 worms for each condition. C. elegans eggs were harvested from a large population of gravid adults using a standard bleaching protocol (30 mL 5% bleach, 15 mL N KOH, 55 mL DH2O). Harvested eggs were placed on lawns of fresh E. coli OP50 and allowed to hatch and grow to the young adult (L4) stage before being moved onto lawns of C. violaceum. Worms were scored for survival each day and transferred to new C. violaceum lawns every two days until all worms had expired.
# In the presence of the mutant strain, the median C. elegans lifespan is twelve days (FIG. 7A; DMSO control). Exogenous addition of the native autoinducer molecule, C6-HSL restored quorum sensing and complemented the cviI mutant's ability to kill C. elegans (median lifespan=4 days, FIG. 7A).
# [2] = system: CviR-dependent violacein production; experiment: Violacein production in C. violaceum cviI mutant with exogenous C6-HSL; assay type: cell-based, Chromobacterium violaceum; conditions: 5 μM C6-HSL, 50 μM antagonist
# Description: (§1) E. coli strains were grown overnight in LB medium with antibiotics at 37° C. and sub-cultured into fresh medium at a 1:100 dilution. Various AHL and antagonists were added at constant concentrations or titrated as stated. The gfp was measured on an Envision plate reader after 5 hours of growth at 37° C. C. violaceum strains were grown aerobically in 1 mL Nutrient Broth plus 1 mM tryptophan at 30° C. […] Cells were collected via centrifugation at 13000 rpm for 15 minutes. Pellets were resuspended in 1 mL of methanol and incubated at 42° C. for 1 hour. Samples were again collected via centrifugation at 13000 rpm for 5 minutes and analyzed for violacein by measuring optical density at 568 nm on a Beckman Coulter DU-800 spectrophotometer. For the dose-response analyses, all assays were performed in triplicate.
# High-throughput chemical library screens had identified 15 molecules that inhibit AHL detection by the membrane-bound two-component AHL receptor LuxN (structures are provided in FIG. 8A). Experiments were undertaken to establish whether any of these LuxN antagonist molecules could also interfere with AHL binding to CviR. […] The native C6-HSL signal was added exogenously and held constant at 5 μM and violacein production was measured in the presence of 50 μM of each potential antagonist (FIG. 8B).
# [3] = system: CviR-dependent violacein production; experiment: Violacein production in wild type C. violaceum, dose-response; assay type: cell-based; conditions: Chromobacterium violaceum, read-out: IC50 for inhibition of violacein production
# Description: as §1
# To determine if 4606-4237 inhibits violacein production specifically by interfering with CviR, 4606-4237 was tested for antagonism of CviR in the recombinant E. coli vioA-gfp assay. For these experiments, C6-HSL was held constant at 500 nM, while 4606-4237 was titrated from 1.3 nM to 100 μM (FIG. 3D). This concentration of native C6-HSL signal induces maximal gfp production in this heterologous assay system. Importantly, no C. violaceum components other than CviR are present in the recombinant E. coli assay strain. Thus, any inhibition occurring would be due to a specific interaction between the antagonist molecule 4606-4237 and CviR rather than an interaction of 4606-4237 with some unknown component required for violacein production in C. violaceum. […] Thus, 4606-4237 functions by disabling CviR-mediated activation of gene expression in both the C. violaceum in vivo violacein assay and the recombinant E. coli vioA-gfp assay.
# bacterial growth = experiment: Bacterial growth in presence of antagonist; assay type: cell-based, Chromobacterium violaceum
# CviR [4] = molecular target: T1, CviR (Chromobacterium violaceum, UniProt D3W065); assay type: binding; design: made in house; host or cells: E. coli BL21(DE3) pLysS, plasmid pET23b; conditions: for DNA binding of ligand-loaded CviR to vioA promoter: CviR 100-500 nM
# Description: (§2) CviR Overexpression and Purification. CviR was overexpressed in BL21(DE3) pLysS by growing an overnight culture in LB supplemented with 100 μg/mL ampicillin and 10 μg/mL chloramphenicol. The culture was diluted 1:50 into fresh LB supplemented with 100 μg/mL ampicillin and 10 μg/mL chloramphenicol and grown shaking at 37° C. to an OD600 of 0.4. Various AHL or antagonist molecules were added to at 50 μM and incubated an additional 30 minutes at 30° C., after which expression was induced by the addition of 100 μM IPTG (isopropyl-β-D-thiogalactopyranoside) for 4 hours at 30° C. Cells were harvested by centrifugation and lysed in 20 mM imidazole pH 8.0, 100 mM NaCl, 0.5 mM EDTA and 5% glycerol via a Micro-fluidizer processor (MicroFluidics). Protein was purified via ion-exchange using a Hitrap Heparin HP column (GE Healthcare). Protein was eluted with a 100 mM to 1 M NaCl gradient. Fractions containing CviR were pooled and diluted in lysis buffer devoid of NaCl, and then further purified by cation exchange chromatography using a Hitrap SP HP column (GE Healthcare). CviR was eluted with a 100 mM to 1 M NaCl gradient.
# DNA probes for gel mobility shift analyses were generated by standard polymerase chain reaction using primers with a 5′ 6-FAM (fluorescein) tag (Integrated DNA Technologies). The target probe contained about 100 nucleotides of the vioA promoter. The control probe contained 300 bases of vioB intergenic DNA. 37 ng of each probe was incubated for 20 minutes at room temperature with the indicated amounts of CviR (0, 0.1, 0.2, 0.3, 0.4 and 0.5 μM) and 1 μg/μL poly-dIdC in 1× Gel shift buffer (40 mM Tris HCl pH 8.0, 100 mM KCL, 2 mM EDTA, 2 mM DTT, 10% glycerol, 200 μg/mL BSA). Gel mobility shifts were performed on 6% TGE-polyacrylamide gels and visualized using a Storm 860 Imaging System (Molecular Dynamics).
# To further investigate the mechanism underlying antagonism of the CviR receptor, an examination was undertaken of whether the soluble CviR antagonist complexes were incapable of binding DNA, and thus unable to activate transcription. […] The CviR protein was also purified in complex with each of the synthetic antagonist molecules, 4606-4237, CTL, and CL. Performance of DNA gel mobility shift analyses enabled assessment of the binding of each of these purified, loaded protein complexes to the vioA promoter.
# The reciprocal experiment tested whether C6-HSL could replace CL bound to CviR.
# CviR [5] = molecular target: T1, CviR; conditions: CviR expressed in E. coli, whole cell vs soluble extract, ligand 50 μM
# Description: as §2
# The solubility characteristics of CviR were analyzed in the presence of the various molecules under study. […] As controls, the protein was also expressed in the absence of any AHL or antagonist. In each case, whole cell and soluble fractions of cell lysates were analyzed by SDS-PAGE to assess whether the CviR protein in question had been stabilized.
# CviR [6] = molecular target: T1, CviR; experiment: cell-based; assay type: cell-based; design: made in house; host or cells: E. coli BL21(DE3) pLysS, plasmid pET23b; conditions: constant 500 nM C6-HSL; read-out: IC50 for inhibition of vioA-gfp expression
# Description: (§3) The vioA-gfp promoter fusion was constructed by amplifying the vioA promoter and cloning this region upstream of gfp in pEVS141 at the SphI and SalI sites. Cells containing the vioA-gfp construct were electroporated with the pET23 carrying cviR and selected on LB medium supplemented with 75 μg/mL ampicillin and 50 μg/mL kanamycin. The E. coli strain containing cviR and the vio:gfp reporter is named ELS1257.
# as §1
# However, binding of the longer acyl-tail length AHL molecules disrupts the transcriptional activation ability of CviR.
# To determine if 4606-4237 inhibits violacein production specifically by interfering with CviR, 4606-4237 was tested for antagonism of CviR in the recombinant E. coli vioA-gfp assay. For these experiments, C6-HSL was held constant at 500 nM, while 4606-4237 was titrated from 1.3 nM to 100 μM (FIG. 3D). […] Importantly, no C. violaceum components other than CviR are present in the recombinant E. coli assay strain. Thus, any inhibition occurring would be due to a specific interaction between the antagonist molecule 4606-4237 and CviR rather than an interaction of 4606-4237 with some unknown component required for violacein production in C. violaceum.
# CviR [7] = molecular target: T1, CviR; assay type: cell-based; design: made in house; host or cells: E. coli BL21(DE3) pLysS, plasmid pET23b; conditions: for induction of vioA-gfp expression through CviR: even at 100 μM; for EC50: E. coli expressing CviR, vioA-gfp reporter, read-out: EC50 for activation of vioA-gfp expression; for maximal level of vioA-gfp expression: compared with C6-HSL
# Description: as §3, §1
# To examine the specificity and sensitivity of CviR, an E. coli strain was engineered that expresses CviR and contains a plasmid harboring the vioA promoter fused to green fluorescent protein (gfp). Thus, the ability of CviR to activate transcription can be assessed by measuring gfp expression in the presence of various molecules.
# T1 sequence (D3W065 1-265): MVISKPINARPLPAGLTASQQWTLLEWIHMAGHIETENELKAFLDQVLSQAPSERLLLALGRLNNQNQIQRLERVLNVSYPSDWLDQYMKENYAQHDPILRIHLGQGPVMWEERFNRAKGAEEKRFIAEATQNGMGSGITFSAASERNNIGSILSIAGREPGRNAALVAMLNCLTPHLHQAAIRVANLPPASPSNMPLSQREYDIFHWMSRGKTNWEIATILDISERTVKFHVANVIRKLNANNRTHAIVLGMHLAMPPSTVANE
Structure (SMILES),DNA binding of ligand-loaded CviR to vioA promoter (CviR [4]),IC50 (CviR [6]) [nM],induction of vioA-gfp expression through CviR (CviR [7]),EC50 (CviR [7]) [nM],other results
"Cc1cc(Cl)ccc1OCCCC(=O)NC1CCSC1=O (centres unmarked) [4606-4237, 4-(4-chloro-2-methylphenoxy)-N-(2-oxotetrahydrothiophen-3-yl)butanamide]",no ability to bind DNA,–,–,–,"C. elegans median survival ([1]; C6-HSL 5 μM and 4606-4237 50 μM added simultaneously): twelve; effect on C. elegans ([1]; no C6-HSL, 4606-4237 50 μM): had little affect on C. elegans; violacein production [2]: completely abolished violacein production; IC50 [3]: 1200 nM; inhibition of bacterial growth (bacterial growth): does not inhibit bacterial growth"
"CCCCCCCCCC(=O)N[C@H]1CCOC1=O [C10-HSL, reference compound]",does not abolish DNA binding,208,do not induce vioA-gfp expression,–,CviR folding and solubility in presence of ligand (CviR [5]): soluble
"CCCCCC(=O)N[C@H]1CCOC1=O [C6-HSL, C6-homoserine lactone]",binds DNA with high affinity,–,–,75,"median C. elegans lifespan ([1]; C6-HSL 5 μM added): 4 days; CviR folding and solubility in presence of ligand (CviR [5]): soluble; ligand exchange on loaded CviR, effect on DNA binding (CviR [4]; 500 nM loaded CviR, competing ligand 0-10 μM): not likewise capable of replacing CL to generate fully competent DNA bound complex"
CCCCCCCCCCCCCC(=O)N[C@H]1CCOC1=O [C14-HSL],no ability to bind DNA,268,do not induce vioA-gfp expression,–,–
CCCCCCCCCCCC(=O)N[C@H]1CCOC1=O [C12-HSL],no ability to bind DNA,494,do not induce vioA-gfp expression,–,–
CCCCCCCC(=O)N[C@H]1CCOC1=O [C8-HSL],bound DNA with similar affinity to the C6-HSL loaded CviR complex,–,–,30,maximal level of vioA-gfp expression (CviR [7]): half of the maximal vioA-gfp expression induced by C6-HSL
CCCC(=O)N[C@H]1CCOC1=O [C4-HSL],–,–,–,12000,maximal level of vioA-gfp expression (CviR [7]): can induce maximal vioA-gfp expression
